The Kd is a measure of binding affinity in units of concentration.

These results are taken from publication PMC12468313, “Use of Amplified Lewy Body Dementia Fibrils and Autoradiography to Characterize Binding of Radioligand Tg-1-90B to Alpha-Synuclein Fibrils in Postmortem Brain Tissue” (Cells, 2025).

For test [1], the target named is T1, IVTris fibrils (recombinant Asyn PFF) (Homo sapiens, UniProt P37840).
T1 construct: made in house
The experiment in a line: [3H]Tg-1-90B saturation binding assay with IVTris fibrils. The following applies: 250 nM fibrils. On the procedure:
(§1) IVTris fibrils were assembled in vitro by spontaneous nucleation in 20 mM Tris-HCl, pH 8.0, 100 mM NaCl buffer in a total volume of 1500 µL at 2 mg/mL monomer concentration. The incubation was carried out at 37 °C with continuous shaking at 1000 rpm in a Thermomixer (Eppendorf, Framingham, MA, USA) for 72 h. Amplified LBD fibrils were prepared as described in Dhavale et al. and case LBD1 amplified fibrils were used in this study. PD, disease-control and AD insoluble fraction (IF) tissue homogenate was prepared by sequential homogenization of dissected tissue gray matter in a series of detergents followed by centrifugation to obtain insoluble fraction. […]
(§2) A fixed concentration of binding substrates IVTris fibrils (250 nM), amplified LBD fibrils (50 nM), Aβ fibrils (150 nM), tau fibrils (150 nM), PD, AD or disease control homogenate (10 µg/mL) were incubated for 2 h at 37 °C with increasing concentrations of [^3H]Tg-1-90B in a reaction volume of 150 µL in a 96-well plate. […] Filters containing the bound ligand were mixed with 150 µL of Optiphase Supermix scintillation cocktail (PerkinElmer, Waltham, MA, USA) and counted following overnight incubation. […] The dissociation constant (Kd) and the maximal number of binding sites (Bmax) values were determined by fitting the data to the equation Y = Bmax × X/(X + Kd) by non-linear regression using Graphpad Prism software (version 7.0).

In test [2] the target is T2, amplified LBD fibrils (PDB 8FPT) alpha-synuclein (Homo sapiens, UniProt P37840).
T2 construct: made in house
Description: [3H]Tg-1-90B saturation binding assay with amplified LBD fibrils. The following applies: 50 nM fibrils. The protocol:
as §1, §2

Regarding `COc1ccc(/C=C/c2cc(-c3nccs3)on2)cc1` [Tg-1-90B], the Kd stood at 40.1 ± 1.9 nM in test [1] (2 h 37 °C, one site saturable specific binding) and 17.5 nM in test [2] (2 h 37 °C). The “average Bmax, IVTris fibrils” value in test [1] (per nmol Asyn) was 22.3 ± 0.1 pmol/nmol. Moreover, in test [2] (per nmol Asyn), the “average Bmax, amplified LBD fibrils” value stood at 20.6 ± 2.5 pmol/nmol.
